Results as given in patent US5061711A, “Method of curing liver diseases by using pyrrolo quinoline quinone triesters and novel pyrrolo quinoline quinone triesters” (Mitsubishi Gas Chemical Company, Inc., priority 1989, dated 1991).

Legend:
mice [1] = experiment: Kidney toxicity determined by blood examination; assay type: in vivo, mouse; conditions: for Creatinine in serum / Urea nitrogen in serum / Glucose in serum: average of eight mice; for Creatinine in serum: None: 0.4; for Urea nitrogen in serum: None: 20; for Glucose in serum: None: 78
Protocol: (3) Kidney toxicity determined by blood examination:
(§1) After lapse of one day from the administration, the mice were fasted (only water was given) and then after 18 hours, blood was collected and serum was obtained therefrom. Glucose, urea nitrogen and creatinine in the serum were examined by clinical examination reagent (trademark: FUJI DRYCHEMSLIDE manufactured by Fuji Photo Film Co., Ltd.). The results are shown by average value of eight mice in Table 3.

Solubility = assay type: physicochemical
mice [2] = experiment: Kidney toxicity (2) determined by blood examination; assay type: in vivo, mouse; conditions: average of eight mice; for Creatinine in serum: None: 0.8; for Urea nitrogen in serum: None: 23; for Glucose in serum: None: 93
Protocol: (4) Kidney toxicity (2) determined by blood examination:
The dosage per kg of body weight of mouse was 150, 400 mg and 100 mg.
as §1, with “then,” for “then”, “15” for “18”, “(trademark :” for “(trademark:”, “4.” for “3.”

## C=CCOC(=O)c1cc(C(=O)OCC=C)c2c(n1)C(=O)C(=O)c1cc(C(=O)OCC=C)[nH]c1-2 [PQQ triallyl ester]
Mice [1]; i.p. 40 mg/kg
  Creatinine in serum: 0.3 mg/dL
  Urea nitrogen in serum: 12 mg/dL
  Glucose in serum: 42 mg/dL
Mice [1]; i.p. 80 mg/kg
  Creatinine in serum: 0.2 mg/dL
  Urea nitrogen in serum: 12 mg/dL
  Glucose in serum: 47 mg/dL
Mice [1]; i.p. 160 mg/kg
  Creatinine in serum: 0.2 mg/dL
  Urea nitrogen in serum: 10 mg/dL
  Glucose in serum: 59 mg/dL
Mice [1]; i.p. 200 mg/kg
  Creatinine in serum: 0.1 mg/dL
  Urea nitrogen in serum: 9 mg/dL
  Glucose in serum: 64 mg/dL
Mice [1]; i.p., versus no compound
  creatinine in serum (in words): nearly the same
  glucose in serum (in words): nearly the same
  urea nitrogen in serum (in words): nearly the same
Mice [1]; mouse, in vivo, ip
  kidney toxicity (in words): no kidney toxicity was observed
Solubility; acetone
  Solubility: Very soluble
Solubility; ethanol
  Solubility: Very soluble
Solubility; methanol
  Solubility: Very soluble
Solubility; water
  Solubility: hardly soluble

## COC(=O)c1cc(C(=O)OC)c2c(n1)C(=O)C(=O)c1cc(C(=O)OC)[nH]c1-2 [PQQ trimethyl ester]
Mice [2]; 150 mg/kg
  Creatinine in serum: 0.9 mg/dL
  Urea nitrogen in serum: 22 mg/dL
  Glucose in serum: 72 mg/dL
Mice [2]; 400 mg/kg
  Creatinine in serum: 0.7 mg/dL
  Urea nitrogen in serum: 20 mg/dL
  Glucose in serum: 55 mg/dL
Mice [2]; 1000 mg/kg
  Creatinine in serum: 0.7 mg/dL
  Urea nitrogen in serum: 17 mg/dL
  Glucose in serum: 60 mg/dL
